Drawing on US12180193B2, “Accelerating fibrosarcoma protein degrading compounds and associated methods of use” (Arvinas Operations, Inc., priority 2020, dated 2024), this text covers Dmax and DC50 for 13 compounds.

Where two headings read alike, the source gives them in different places.

One assay concerns the target T1, BRAF V600E (Homo sapiens, UniProt P15056, V600E).
T1 construct: expressed in transfected cells
Description: Cellular assay of target protein degradation, T-Rex 293 cells stably transfected with HA-BRAF_V600E (HA immunofluorescence, high content imaging). The assay is classed as cell-based. Put shortly:
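Degradation of the HA-tagged construct is measured after 24 h treatment at 37 °C across 1 μM to 0.1 nM in 0.1% DMSO, in doxycycline-induced (1 ng/mL) cells. DC50 and Dmax come from HA fluorescence imaging.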

The target in another assay is T2, BRAF G466V (Homo sapiens, UniProt P15056, G466V).
T2 construct: expressed in transfected cells
As to the kind of experiment: Cellular assay of target protein degradation, T-Rex 293 cells stably transfected with HA-BRAF G466V (HA immunofluorescence, high content imaging). It is filed as cell-based. A digest of the protocol: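 Dose range spans 30 nM to 3 pM (0.1% DMSO) over 24 hours at 37° C, in cells induced with 0.75 ng/mL doxycycline. Fixed cells are probed with anti-HA antibody overnight at 4° C, then imaged; half-maximal degradation and maximum degradation are derived.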

The mark [1] stands for this setting: maximum degradation observed, T-Rex 293 HA-BRAF V600E.
Where [2] appears, read: maximum degradation observed, T-Rex 293 HA-BRAF G466V.
Where [3] appears, read: half maximal degradation, T-Rex 293 HA-BRAF V600E; read-out: BRaf V600E DC50.
Setting [4] is: half maximal degradation, T-Rex 293 HA-BRAF G466V; read-out: BRaf G466V DC50.

T1 sequence (P15056 whole entry V600E): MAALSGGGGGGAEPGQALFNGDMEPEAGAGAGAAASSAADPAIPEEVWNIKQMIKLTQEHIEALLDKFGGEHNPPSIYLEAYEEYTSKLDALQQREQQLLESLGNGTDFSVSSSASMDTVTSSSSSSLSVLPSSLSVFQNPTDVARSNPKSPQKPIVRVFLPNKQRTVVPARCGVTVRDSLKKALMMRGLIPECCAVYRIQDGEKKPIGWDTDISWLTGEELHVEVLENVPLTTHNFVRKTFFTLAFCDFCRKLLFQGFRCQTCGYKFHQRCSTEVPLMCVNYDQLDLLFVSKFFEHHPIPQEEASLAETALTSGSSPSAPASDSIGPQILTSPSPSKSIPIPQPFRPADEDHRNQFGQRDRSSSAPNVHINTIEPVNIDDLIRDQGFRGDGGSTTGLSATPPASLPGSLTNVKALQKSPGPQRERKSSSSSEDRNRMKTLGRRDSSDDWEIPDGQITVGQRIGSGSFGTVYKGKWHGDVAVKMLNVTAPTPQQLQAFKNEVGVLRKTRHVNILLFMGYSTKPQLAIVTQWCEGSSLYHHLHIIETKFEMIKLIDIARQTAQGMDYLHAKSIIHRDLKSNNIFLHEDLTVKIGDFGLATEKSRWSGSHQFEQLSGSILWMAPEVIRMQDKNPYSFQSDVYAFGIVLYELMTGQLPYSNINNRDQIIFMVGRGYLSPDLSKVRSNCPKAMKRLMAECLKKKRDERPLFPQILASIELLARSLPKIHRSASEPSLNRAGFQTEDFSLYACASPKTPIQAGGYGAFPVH
T2 sequence (P15056 whole entry G466V): as the sequence (P15056 whole entry V600E) above, with G466V, E600V counted along it

For `O=C1CCC(NC(=O)N2CCCc3c(C4CCN(CC5CCN(c6ccc(-c7cnc8[nH]cc(C(=O)c9c(F)ccc(NS(=O)(=O)N%10CC[C@@H](F)C%10)c9F)c8c7)cc6)CC5)CC4)ccnc32)C(=O)N1` (stereo partly drawn) [Compound 364, 5-(1-{[1-(4-{3-[2,6-difluoro-3-({[(3R)-3-fluoropyrrolidin-1-yl]sulfonyl}amino)benzoyl]-1H-pyrrolo[2,3-b]pyridin-5-yl}phenyl)piperidin-4-yl]methyl}piperidin-4-yl)-N-(2,6-dioxopiperidin-3-yl)-1,2,3,4-tetrahydro-1,8-naphthyridine-1-carboxamide], the Dmax (as a rule, the greatest extent of degradation seen) is 35 to 70% on BRAF V600E (setting [1]) and above 70% at BRAF G466V (setting [2]). The DC50 (commonly the concentration giving 50% degradation) lay in the range of 5 to 50 nM at BRAF V600E (read-out: BRaf V600E DC50; half maximal degradation, T-Rex 293 HA-BRAF V600E) and 1 to 10 nM on BRAF G466V (read-out: BRaf G466V DC50; half maximal degradation, T-Rex 293 HA-BRAF G466V).
`O=C1CCC(c2ccc(C3CCN(CC4CCN(c5ccc(-c6cnc7[nH]cc(C(=O)c8c(F)ccc(NS(=O)(=O)N9CC[C@@H](F)C9)c8F)c7c6)cc5)CC4)CC3)cn2)C(=O)N1` (stereo partly drawn) [Compound 365, (3R)-N-[3-(5-{4-[4-({4-[6-(2,6-dioxopiperidin-3-yl)pyridin-3-yl]piperidin-1-yl}methyl)piperidin-1-yl]phenyl}-1H-pyrrolo[2,3-b]pyridine-3-carbonyl)-2,4-difluorophenyl]-3-fluoropyrrolidine-1-sulfonamide]: the values for the DC50 on BRAF V600E (setting [3]) and on BRAF G466V (setting [4]) were 5 to 50 nM and 1 to 10 nM, respectively. For the same compound, the Dmax on BRAF V600E (setting [1]) and on BRAF G466V (setting [2]) was above 70% in each case.
Take `O=C1CC[C@H](NC(=O)N2CCCc3c(C4CCN(CC5CCN(c6ccc(-c7cnc8[nH]cc(C(=O)c9c(F)ccc(NS(=O)(=O)N%10CC[C@@H](F)C%10)c9F)c8c7)cc6)CC5)CC4)ccnc32)C(=O)N1` [Compound 366, 5-(1-{[1-(4-{3-[2,6-difluoro-3-({[(3R)-3-fluoropyrrolidin-1-yl]sulfonyl}amino)benzoyl]-1H-pyrrolo[2,3-b]pyridin-5-yl}phenyl)piperidin-4-yl]methyl}piperidin-4-yl)-N-[(3S)-2,6-dioxopiperidin-3-yl]-1,2,3,4-tetrahydro-1,8-naphthyridine-1-carboxamide]: the DC50 at BRAF V600E (setting [3]) is 5 to 50 nM; at BRAF G466V (setting [4]) it was 1 to 10 nM. In addition, the results for the Dmax at BRAF V600E (setting [1]) and on BRAF G466V (setting [2]) were 35 to 70% and above 70%, respectively.
As to `O=C1CC[C@@H](NC(=O)N2CCCc3c(C4CCN(CC5CCN(c6ccc(-c7cnc8[nH]cc(C(=O)c9c(F)ccc(NS(=O)(=O)N%10CC[C@@H](F)C%10)c9F)c8c7)cc6)CC5)CC4)ccnc32)C(=O)N1` [Compound 367, 5-(1-{[1-(4-{3-[2,6-difluoro-3-({[(3R)-3-fluoropyrrolidin-1-yl]sulfonyl}amino)benzoyl]-1H-pyrrolo[2,3-b]pyridin-5-yl}phenyl)piperidin-4-yl]methyl}piperidin-4-yl)-N-[(3R)-2,6-dioxopiperidin-3-yl]-1,2,3,4-tetrahydro-1,8-naphthyridine-1-carboxamide], the values for the DC50 on BRAF V600E (setting [3]) and on BRAF G466V (setting [4]) were above 500 nM and 1 to 10 nM, respectively. The compound also gave a Dmax on BRAF G466V (setting [2]) below 35%.
Take `O=C1CCC(c2ccc(N3CC4(CN(CC5CCN(c6ccc(-c7cnc8[nH]cc(C(=O)c9c(F)ccc(NS(=O)(=O)N%10CC[C@@H](F)C%10)c9F)c8c7)cc6)CC5)C4)C3)cc2)C(=O)N1` (stereo partly drawn) [Compound 368, (3R)-N-[3-(5-{4-[4-({6-[4-(2,6-dioxopiperidin-3-yl)phenyl]-2,6-diazaspiro[3.3]heptan-2-yl}methyl)piperidin-1-yl]phenyl}-1H-pyrrolo[2,3-b]pyridine-3-carbonyl)-2,4-difluorophenyl]-3-fluoropyrrolidine-1-sulfonamide]: the values for the DC50 on BRAF V600E (setting [3]) and at BRAF G466V (setting [4]) were 5 to 50 nM and 1 to 10 nM, respectively. In addition, the Dmax at BRAF V600E (setting [1]) and on BRAF G466V (setting [2]) was 35 to 70% throughout.
Regarding `O=C1CC[C@H](NC(=O)N2CCCc3c(N4CCN(CC5CCN(c6ccc(-c7cnc8[nH]cc(C(=O)c9c(F)ccc(NS(=O)(=O)N%10CC[C@@H](F)C%10)c9F)c8c7)cc6)CC5)CC4)ccnc32)C(=O)N1` [Compound 369, 5-(4-{[1-(4-{3-[2,6-difluoro-3-({[(3R)-3-fluoropyrrolidin-1-yl]sulfonyl}amino)benzoyl]-1H-pyrrolo[2,3-b]pyridin-5-yl}phenyl)piperidin-4-yl]methyl}piperazin-1-yl)-N-[(3S)-2,6-dioxopiperidin-3-yl]-1,2,3,4-tetrahydro-1,8-naphthyridine-1-carboxamide], the figures for the 50% degradation concentration (DC50) at BRAF V600E (setting [3]) and at BRAF G466V (setting [4]) were 5 to 50 nM and 1 to 10 nM, respectively. Moreover, the figures for the Dmax at BRAF V600E (setting [1]) and at BRAF G466V (setting [2]) were 35 to 70% and above 70%, respectively.
As for `O=C1CCC(NC(=O)N2CCCc3c(N4CCN(CC5CCN(c6ccc(-c7cnc8[nH]cc(C(=O)c9c(F)ccc(NS(=O)(=O)N%10CC[C@@H](F)C%10)c9F)c8c7)cc6)CC5)CC4)ccnc32)C(=O)N1` (stereo partly drawn) [Compound 370, 5-(4-{[1-(4-{3-[2,6-difluoro-3-({[(3R)-3-fluoropyrrolidin-1-yl]sulfonyl}amino)benzoyl]-1H-pyrrolo[2,3-b]pyridin-5-yl}phenyl)piperidin-4-yl]methyl}piperazin-1-yl)-N-(2,6-dioxopiperidin-3-yl)-1,2,3,4-tetrahydro-1,8-naphthyridine-1-carboxamide], the DC50 at BRAF V600E (setting [3]) was 5 to 50 nM; on BRAF G466V (setting [4]), 1 to 10 nM. The Dmax at BRAF V600E (setting [1]) was 35 to 70%; at BRAF G466V (setting [2]), above 70%.
Take `O=C1CC[C@H](NC(=O)N2CCCc3c(N4CCC(CN5CCN(c6ccc(-c7cnc8[nH]cc(C(=O)c9c(F)ccc(NS(=O)(=O)N%10CC[C@@H](F)C%10)c9F)c8c7)cc6)CC5)CC4)ccnc32)C(=O)N1` [Compound 371, 5-(4-{[4-(4-{3-[2,6-difluoro-3-({[(3R)-3-fluoropyrrolidin-1-yl]sulfonyl}amino)benzoyl]-1H-pyrrolo[2,3-b]pyridin-5-yl}phenyl)piperazin-1-yl]methyl}piperidin-1-yl)-N-[(3S)-2,6-dioxopiperidin-3-yl]-1,2,3,4-tetrahydro-1,8-naphthyridine-1-carboxamide]: the DC50 is 50 to 500 nM on BRAF V600E (setting [3]) and 1 to 10 nM at BRAF G466V (setting [4]). Moreover, the Dmax on BRAF V600E (setting [1]) and on BRAF G466V (setting [2]) was above 70% in each case.
Turning to `O=C1CC[C@@H](NC(=O)N2CCCc3c(N4CCC(CN5CCN(c6ccc(-c7cnc8[nH]cc(C(=O)c9c(F)ccc(NS(=O)(=O)N%10CC[C@@H](F)C%10)c9F)c8c7)cc6)CC5)CC4)ccnc32)C(=O)N1` [Compound 372, 5-(4-{[4-(4-{3-[2,6-difluoro-3-({[(3R)-3-fluoropyrrolidin-1-yl]sulfonyl}amino)benzoyl]-1H-pyrrolo[2,3-b]pyridin-5-yl}phenyl)piperazin-1-yl]methyl}piperidin-1-yl)-N-[(3R)-2,6-dioxopiperidin-3-yl]-1,2,3,4-tetrahydro-1,8-naphthyridine-1-carboxamide], the DC50 on BRAF V600E (setting [3]) was above 500 nM; at BRAF G466V (setting [4]), above 30 nM.
With `O=C1CC[C@H](NC(=O)c2ccc(N3CC4(CN(CCc5ccc(-c6cnc7[nH]cc(C(=O)c8c(F)ccc(NS(=O)(=O)N9CC[C@@H](F)C9)c8F)c7c6)cc5)C4)C3)cc2F)C(=O)N1` [Compound 373, 4-[6-(2-[4-[3-(2,6-difluoro-3-[[(3R)-3-fluoropyrrolidin-1-ylsulfonyl]amino]benzoyl)-1H-pyrrolo[2,3-b]pyridin-5-yl]phenyl]ethyl)-2,6-diazaspiro[3.3]heptan-2-yl]-N-[(3S)-2,6-dioxopiperidin-3-yl]-2-fluorobenzamide], the DC50 on BRAF V600E (setting [3]) is 5 to 50 nM; on BRAF G466V (setting [4]), 1 to 10 nM. Besides, the Dmax at BRAF V600E (setting [1]) was 35 to 70%; on BRAF G466V (setting [2]), above 70%.
With `O=C1CCC(NC(=O)c2ccc(N3CC4(CN(CCc5ccc(-c6cnc7[nH]cc(C(=O)c8c(F)ccc(NS(=O)(=O)N9CC[C@@H](F)C9)c8F)c7c6)cc5)C4)C3)cc2F)C(=O)N1` (stereo partly drawn) [Compound 374, 4-{6-[2-(4-{3-[2,6-difluoro-3-({[(3R)-3-fluoropyrrolidin-1-yl]sulfonyl}amino)benzoyl]-1H-pyrrolo[2,3-b]pyridin-5-yl}phenyl)ethyl]-2,6-diazaspiro[3.3]heptan-2-yl}-N-(2,6-dioxopiperidin-3-yl)-2-fluorobenzamide], the DC50 at BRAF V600E (setting [3]) was 5 to 50 nM; at BRAF G466V (setting [4]), below 1 nM. Also, the Dmax on BRAF V600E (setting [1]) and on BRAF G466V (setting [2]) was 35 to 70% throughout.
On to `O=C1CC[C@H](NC(=O)c2ccc(C3CCN(CC4CCN(c5ncc(-c6cnc7[nH]cc(C(=O)c8c(F)ccc(NS(=O)(=O)N9CC[C@@H](F)C9)c8F)c7c6)cn5)CC4)CC3)cc2F)C(=O)N1` [Compound 375, 4-(1-{[1-(5-{3-[2,6-difluoro-3-({[(3R)-3-fluoropyrrolidin-1-yl]sulfonyl}amino)benzoyl]-1H-pyrrolo[2,3-b]pyridin-5-yl}pyrimidin-2-yl)piperidin-4-yl]methyl}piperidin-4-yl)-N-[(3S)-2,6-dioxopiperidin-3-yl]-2-fluorobenzamide], for which the DC50 lay within 50 to 500 nM on BRAF V600E (setting [3]) and 1 to 10 nM at BRAF G466V (setting [4]). Further, the greatest degradation seen (Dmax) at BRAF V600E (setting [1]) and at BRAF G466V (setting [2]) was 35 to 70% each time.
Consider `O=C1CCC(NC(=O)c2ccc(C3CCN(CC4CCN(c5ncc(-c6cnc7[nH]cc(C(=O)c8c(F)ccc(NS(=O)(=O)N9CC[C@@H](F)C9)c8F)c7c6)cn5)CC4)CC3)cc2F)C(=O)N1` (stereo partly drawn) [Compound 376, 4-(1-{[1-(5-{3-[2,6-difluoro-3-({[(3R)-3-fluoropyrrolidin-1-yl]sulfonyl}amino)benzoyl]-1H-pyrrolo[2,3-b]pyridin-5-yl}pyrimidin-2-yl)piperidin-4-yl]methyl}piperidin-4-yl)-N-(2,6-dioxopiperidin-3-yl)-2-fluorobenzamide], for which the DC50 on BRAF V600E (setting [3]) fell in the range of 50 to 500 nM; on BRAF G466V (setting [4]), 1 to 10 nM. Moreover, the greatest degradation seen (Dmax) at BRAF V600E (setting [1]) and at BRAF G466V (setting [2]) was 35 to 70% throughout.
